According to PMC7563317, “Development of a Cationic Amphiphilic Helical Peptidomimetic (B18L) As A Novel Anti-Cancer Drug Lead” (Cancers, 2020):
Where two headings read alike, the source gives them in different places. Residues, ends and D or L forms follow the SMILES beside them.

What was measured:
MDA-MB-468 = conditions: 24 h
Experimental: (§1) Cells were plated at 5000 cells/well (cancer cells) or 10,000 cells/well (PBMCs) in a 96-well plate and allowed to attach for 24 h. Cells were then treated with various concentrations of compounds for the times indicated in the different figures. At each time point, the viability of cells was measured using MTT assay. In brief, each well was treated with 20 µL of MTT reagent (5 mg/mL in 1x DPBS) and incubated at 37 °C for 3 h. After 3 h, 100 µL of MTT solvent (90% Isopropanol, 10% Triton X-and 0.4% 1M HCl) was added to each well and the plate was covered from light while shaking for 20 min. The absorbance of solubilized MTT reagent was measured using spectrophotometer at 590 nm. In some experiments with PBMCs, the ATP assay was used to assess cell viability by following manufacture’s instruction. […] Cells were then incubated at 37 °C for the indicated time points on the figure and then treated with equivalent volume of CellTiter-Glo reagent. The plate was rocked for 10 min and luminescence intensity was read using spectrophotometer.

MDA-MB-231 = conditions: 24 h
Experimental: as §1

ZR-75-1 = conditions: 24 h
Experimental: as §1

T47D = conditions: 24 h
Experimental: as §1

SKBR3 = conditions: 24 h
Experimental: as §1

MCF7 = conditions: 24 h
Experimental: as §1

MCF7-G11-TR1 = conditions: 24 h
Experimental: as §1

MCF7-G11-TR5 = conditions: 24 h
Experimental: as §1

PBMCs = conditions: 24 h
Experimental: as §1

MCF-10a = conditions: 24 h
Experimental: as §1

[1] = system: recombinant BST-2 (rBST-2); assay: UV absorbance (230 nm) centrifugal filter binding assay; conditions: 2 mg/mL B18L, 1 mg/mL rBST-2, 37 °C 45 min, 3000 NMWL filter, 13,000 rpm 1 h, UV 230 nm
Experimental: To validate the MD simulation data, we used UV absorbance based assay to assess the binding affinity of B18L to BST-2 (B18L•BST-2). Following incubation of B18L with rBST-2 or controls (B18L alone and rBST-2 alone) at 37 °C for 45 min, each compound or the B18L•BST-2 mixture was placed in centrifugal filters and spun at 13,000 rpm for 1 h (Figure 2I). Absorbance of compounds (i) prior to addition to the filter (input), (ii) on the apical side of the filter (retained), (iii) in the collection tube (flow through) were obtained and converted to compound concentration using the standard curves (Figure 2J).
B18L (MW = 1.683 kDa), the rBST-2 (MW = 5.832 kDa) and the mixture of B18L and rBST-2 (B18L•BST-2) were titrated with UV spectroscopy at 230 nm to obtain the standard curve. 2 mg/mL of B18L and 1 mg/mL of rBST-2 were preincubated at 37 °C for 45 min. 200 μL mixture was then subjected to the ultracentrifuge tube with 3000 NMWL filter and centrifuged at 13,000 rpm for 1 h. Absorbance of the compounds i) before spin designated as input, ii) compounds left on the apical side of the membrane designated as retained and iii) compounds in the basal side of the tube designated as the flow through were measured with UV spectroscopy. The standard curve was used to extrapolate protein concentrations from the absorbance measurements.

IC50 (MDA-MB-468)	IC50 (MDA-MB-231)	IC50 (ZR-75-1)	IC50 (T47D)	IC50 (SKBR3)	IC50 (MCF7)	IC50 (MCF7-G11-TR1)	IC50 (MCF7-G11-TR5)	IC50 (MDA-MB-468; MDA-MB-468 (Basal A), MTT)	IC50 (MCF7; MCF7 (drug-sensitive), MTT)	in the flow-through [1]	retained on the apical side of the filter [1]	Molecule	IC50 (PBMCs)	IC50 (MCF-10a)
> 128 µM	> 128 µM	> 128 µM	> 128 µM	> 128 µM	> 128 µM	> 128 µM	> 128 µM					CSCC[C@H](NC(=O)[C@@H](NC(=O)[C@@H](NC(=O)[C@H](Cc1c[nH]cn1)NC(=O)[C@H](CC(C)C)NC(=O)[C@H](CS)NC(=O)[C@@H](NC(=O)[C@H](CC(C)C)NC(=O)[C@H](C)NC(=O)[C@H](CCC(N)=O)NC(=O)[C@H](C)NC(=O)[C@H](CCCCN)NC(=O)[C@@H](NC(=O)[C@H](CCCCN)NC(=O)[C@H](CCC(N)=O)NC(=O)[C@H](Cc1ccccc1)NC(=O)CN)C(C)C)[C@@H](C)O)[C@@H](C)O)C(C)C)C(=O)N[C@@H](C)C(=O)O [B18KL] (H-GFQKVKAQALTCLHTVMA-OH; N-terminus and C-terminus assumed)		
	> 131 µM	> 131 µM	> 131 µM			> 131 µM	> 131 µM	> 131 µM	> 131 µM			CSCC[C@H](NC(=O)[C@@H](NC(=O)[C@@H](NC(=O)[C@H](Cc1c[nH]cn1)NC(=O)[C@H](CC(N)=O)NC(=O)[C@H](CS)NC(=O)[C@@H](NC(=O)[C@H](C)NC(=O)[C@H](C)NC(=O)[C@H](CCC(N)=O)NC(=O)[C@H](C)NC(=O)[C@H](CCCCN)NC(=O)[C@@H](NC(=O)[C@H](CCCCN)NC(=O)[C@H](CCC(N)=O)NC(=O)[C@H](Cc1ccccc1)NC(=O)CN)C(C)C)[C@@H](C)O)[C@@H](C)O)C(C)C)C(=O)N[C@@H](C)C(=O)O [B18K] (H-GFQKVKAQAATCNHTVMA-OH; N-terminus and C-terminus assumed)		
136 ± 9.3 µM	83.7 ± 20.1 µM	58.9 ± 2 µM	78.5 ± 20.9 µM	43.5 ± 11.5 µM	61.8 ± 3.9 µM	61.8 ± 5.1 µM	56.4 ± 5 µM					CC(C)C[C@H](NC(=O)[C@H](C)NC(=O)[C@H](CCCCN)NC(=O)[C@H](C)NC(=O)[C@H](CC(C)C)NC(=O)[C@H](CS)NC(=O)[C@H](C)NC(=O)[C@H](CC(C)C)NC(=O)[C@H](C)NC(=O)[C@H](CCCCN)NC(=O)[C@H](C)NC(=O)[C@H](CCCCN)NC(=O)[C@H](C)NC(=O)[C@H](CCCCN)NC(=O)[C@H](CCC(N)=O)NC(=O)[C@H](Cc1ccccc1)NC(=O)CN)C(=O)N[C@@H](C)C(=O)O [B18KA] (H-GFQKAKAKALACLAKALA-OH)		
12.4 ± 1.4 µM	7.2 ± 0.8 µM	5.2 ± 1 µM	17.5 ± 6.5 µM	7.2 ± 1 µM	5.9 ± 0.5 µM	6.2 ± 0.8 µM	3.8 ± 0.3 µM					CC(C)C[C@H](NC(=O)CN)C(=O)NCC(=O)N[C@@H](CCCCN)C(=O)N[C@@H](C)C(=O)N[C@@H](CC(C)C)C(=O)N[C@@H](C)C(=O)N[C@@H](CCCCN)C(=O)N[C@@H](C)C(=O)N[C@@H](CC(C)C)C(=O)N[C@@H](C)C(=O)N[C@@H](CS)C(=O)N[C@@H](CC(C)C)C(=O)N[C@@H](C)C(=O)N[C@@H](CCCCN)C(=O)N[C@@H](C)C(=O)N[C@@H](CC(C)C)C(=O)N[C@@H](C)C(=O)O [B18L] (H-GLGKALAKALACLAKALA-OH)	39.8 ± 3.8 µM	17.2 ± 6.4 µM
16.6 ± 1.5 µM	18.6 ± 2.4 µM	10.1 ± 1.8 µM	> 148 µM	18.1 ± 4.7 µM	16 ± 1.6 µM	10.8 ± 2 µM	16.1 ± 4.9 µM					CC[C@H](C)[C@H](NC(=O)CN)C(=O)NCC(=O)N[C@@H](CCCCN)C(=O)N[C@@H](C)C(=O)N[C@H](C(=O)N[C@@H](C)C(=O)N[C@@H](CCCCN)C(=O)N[C@@H](C)C(=O)N[C@H](C(=O)N[C@@H](C)C(=O)N[C@@H](CS)C(=O)N[C@H](C(=O)N[C@@H](C)C(=O)N[C@@H](CCCCN)C(=O)N[C@@H](C)C(=O)N[C@H](C(=O)N[C@@H](C)C(=O)O)[C@@H](C)CC)[C@@H](C)CC)[C@@H](C)CC)[C@@H](C)CC [B18I] (H-GIGKAIAKAIACIAKAIA-OH)		
										21%	78%	BST-2: recombinant BST-2 (MW = 5.832 kDa), extracellular domain, binding partner and control (protein, UniProt Q10589 49-161, looked up, extracellular domain) extracellular domain: NSEACRDGLRAVMECRNVTHLLQQELTEAQKGFQDVEAQAATCNHTVMALMASLDAEKAQGQKKVEELEGEITTLNHKLQDASAEVERLRRENQVLSVRIADKKYYPSSQDSS		
